Assay results reported in US12065428B2, “Anti-viral compounds” (Aligos Therapeutics, Inc., priority 2021, dated 2024).
Where two headings read alike, the source gives them in different places.

Experiments:
[1] = system: SARS-CoV-2-GHB-03021/2020; assay: microbe, parasite or virus in culture; type: cell-based; settings: Severe acute respiratory syndrome coronavirus 2, Vero C1008, 96 h; read-out: VeroE6 + CP (EC50)
HRV3C = target: T1, HRV3C (Human rhinovirus 14, UniProt P03303); assay: biochemical; settings: read-out: HRV IC50
T1 construct: SARS-Cov-2 3CLpro and HRV3C Duplex Assay

[2] = system: human beta-coronavirus OC43; assay: OC43 coronavirus assay in HeLa cells (cytopathic effect, cell-titer-glo); type: cell-based
[3] = Cytotoxicity plates without OC43 virus in HeLa cells; type: cell-based; settings: human, HeLa cells (uninfected)
Protocol: The human beta-coronavirus OC43 was purchased from ATCC (Manassas, VA) and propagated using HCT-8 human colorectal epithelial cells (ATCC). HeLa human cervical epithelial cells (ATCC) were used as susceptible host cell lines and were cultured using EMEM media, supplemented with 10% fetal bovine serum (FBS), 1% (v/v) penicillin/streptomycin (P/S), 1% (v/v) HEPES and 1% (v/v) cellgro Glutagro™ supplement (all Corning, Manassas, VA) at 37° C. For the OC43 antiviral assay, 1.5×10^4 HeLa cells per well were plated in 100 μL complete media in white 96-well plates with clear bottoms at 37° C. for up to 24 h to facilitate attachment and allow cells to recover from seeding stresses. Next day, the cell culture medium was removed. Serially diluted compounds in 100 μL assay media (EMEM, 2% FBS, 1% P/S, 1% cellgro Glutagro™ supplement, 1% HEPES) were added to the cells and incubated for 4H at 37° C. in a humidified 5% CO2 incubator. 100 μL of OC43 virus stock was diluted to a concentration known to produce optimal cytopathic effect, inducing 80-90% reduction in cell viability. 96-well plates were incubated for 6 (HeLa) days at 33° C.; each plate contains uninfected control wells as well as virus-infected wells that were not treated with compound. Cytotoxicity plates without the addition of OC43 virus were carried out in parallel. At the end of the incubation period, 100 μL cell culture supernatant was replaced with 100 μL cell-titer-glo reagent (Promega, Madison, WI) and incubated for at least 10 min at rt prior to measuring luminescence. Luminescence was measured on a Perkin Elmer (Waltham, MA) Envision plate reader. Antiviral % inhibition was calculated as follows: [(Compound treated cells infected sample)−(no compound infected control)]/[(Uninfected control)−(no compound infected control)]*100; Using GraphPad (San Diego, CA) prism software version 8.3.1, the antiviral dose-response plot was generated as a sigmoidal fit, log(inhibitor) vs response-variable slope (four parameters) model and the EC50 was calculated which is the predicted compound concentration corresponding to a 50% inhibition of the viral cytopathic effect.

human cathepsin L = target: T2, human cathepsin L (Homo sapiens, UniProt P07711); assay: Cathepsin L assay (Z-FR-AMC fluorescence); type: biochemical; settings: 10 pM human cathepsin L, 30 mins preincubation; class symbols
T2 construct: purchased R&D Systems
Protocol: For the cathepsin L assay, 10 pM of human cathepsin L (R&D Systems; Minneapolis, MN) was preincubated for 30 mins with test compounds. Reactions were initiated by the addition of a peptide substrate Z-FR-AMC (final concentration 2 μM, Anaspec; Fremont, CA). Fluorescence was measured at 2-minute intervals for 30 mins using a 355/460 excitation/emission filter module on an Envision plate reader (Perkin Elmer; Waltham, MA). The IC50 values were calculated for each assay by fitting the curves using a four-parameter equation in GraphPad Prism.

SARS-Cov-2 3CLpro = target: T3, SARS-Cov-2 3CLpro (Severe acute respiratory syndrome coronavirus 2, UniProt P0DTD1); assay: SARS-Cov-2 3CLpro and HRV3C duplex assay (SAMDI-MS): 3CLpro; type: biochemical; settings: 3CLpro, duplex assay, 30 mins preincubation; class symbols; read-out: SARS-Cov-2 IC50
T3 construct: SARS-Cov-2 3CLpro and HRV3C Duplex Assay

[4] = HRV3C, duplex assay, 30 mins preincubation, class symbols
[5] = Betacoronavirus 1, 144 h, OC43 in HeLa cells, 6 days at 33° C., class symbols, read-out: EC50

T2 sequence (P07711 114-333): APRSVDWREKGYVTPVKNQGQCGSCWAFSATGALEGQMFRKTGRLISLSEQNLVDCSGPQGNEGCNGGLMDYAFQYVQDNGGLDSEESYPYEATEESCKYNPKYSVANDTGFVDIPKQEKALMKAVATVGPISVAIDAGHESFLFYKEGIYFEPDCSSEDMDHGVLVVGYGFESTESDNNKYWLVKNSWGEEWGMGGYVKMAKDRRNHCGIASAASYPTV
T1 sequence (P03303 1538-1719): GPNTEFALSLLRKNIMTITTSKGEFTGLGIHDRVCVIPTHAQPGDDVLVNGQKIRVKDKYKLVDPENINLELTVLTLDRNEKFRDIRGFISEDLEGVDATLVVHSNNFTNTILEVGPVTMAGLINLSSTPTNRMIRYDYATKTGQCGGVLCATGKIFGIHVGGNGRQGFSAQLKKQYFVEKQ

Compound | EC50 [1] | IC50 (HRV3C; [4]) | EC50 [2, 5] | CC50 at 6 days ([3]; numeric bound, unit inferred) | IC50 (human cathepsin L) | IC50 (SARS-Cov-2 3CLpro) | IC50 (HRV3C) | CC50 at 6 days ([3]; class symbols) | EC50 ([2]; Betacoronavirus 1, OC43, HeLa)
Cc1sc(C(=O)N2CCC3(CC3)C[C@H]2C(=O)N[C@@H](C[C@@H]2CCNC2=O)C(=O)C(=O)NC2CC2)nc1-c1ccccc1 [Compound 38] | 1000 to 10000 nM | 2000 to 20000 nM | 100 to 1000 nM | > 100000 nM | ≥ 10000 nM | 200 to 2000 nM | – | – | –
CC(C)(C)c1csc(C(=O)N2CCC3(CC3)C[C@H]2C(=O)N[C@@H](C[C@@H]2CCNC2=O)C(=O)C(=O)NC2CC2)n1 [Compound 39] | 1000 to 10000 nM | 2000 to 20000 nM | 100 to 1000 nM | > 100000 nM | 1000 to 10000 nM | 200 to 2000 nM | – | – | –
O=C(NC1CC1)C(=O)[C@H](C[C@@H]1CCNC1=O)NC(=O)[C@@H]1CC2(CCN1C(=O)c1csc(-c3ccccc3)n1)CC2 [Compound 40] | 1000 to 10000 nM | 200 to 2000 nM | 100 to 1000 nM | > 100000 nM | ≥ 10000 nM | 200 to 2000 nM | – | – | –
O=C(NC1CC1)C(=O)[C@H](C[C@@H]1CCNC1=O)NC(=O)[C@@H]1CC2(CCN1C(=O)c1cccc(-c3ccccc3)n1)CC2 [Compound 41] | 1000 to 10000 nM | 200 to 2000 nM | 100 to 1000 nM | > 100000 nM | ≥ 10000 nM | 200 to 2000 nM | – | – | –
COc1ccccc1-c1csc(C(=O)N2CCC3(CC3)C[C@H]2C(=O)N[C@@H](C[C@@H]2CCNC2=O)C(=O)C(=O)NC2CC2)n1 [Compound 42] | 1000 to 10000 nM | – | 100 to 1000 nM | > 100000 nM | ≥ 10000 nM | 200 to 2000 nM | > 10000 nM | – | –
O=C(NC1CC1)C(=O)[C@H](C[C@@H]1CCNC1=O)NC(=O)[C@@H]1CC2(CCN1C(=O)c1nc(-c3ccccc3Cl)cs1)CC2 [Compound 43] | 1000 to 10000 nM | – | 100 to 1000 nM | > 100000 nM | ≥ 10000 nM | 200 to 2000 nM | > 10000 nM | – | –
O=C(NC1CC1)C(=O)[C@H](C[C@@H]1CCNC1=O)NC(=O)[C@@H]1CC2(CCN1C(=O)c1nc(-c3ccc(Cl)cc3)cs1)CC2 [Compound 44] | 1000 to 10000 nM | – | 100 to 1000 nM | – | ≥ 10000 nM | 200 to 2000 nM | > 10000 nM | 10000 to 100000 nM | –
O=C(NC1CC1)C(=O)[C@H](C[C@@H]1CCNC1=O)NC(=O)[C@@H]1CC2(CCN1C(=O)c1csc(-c3cccc(Cl)c3)n1)CC2 [Compound 45] | < 1000 nM | 2000 to 20000 nM | 100 to 1000 nM | – | ≥ 10000 nM | 20 to 200 nM | – | 10000 to 100000 nM | –
O=C(NC1CC1)C(=O)[C@H](C[C@@H]1CCNC1=O)NC(=O)[C@@H]1CC2(CCN1C(=O)c1nc(C3CCCCC3)cs1)CC2 [Compound 46] | 1000 to 10000 nM | – | 100 to 1000 nM | > 100000 nM | 1000 to 10000 nM | 200 to 2000 nM | > 10000 nM | – | –
O=C(NC1CC1)C(=O)[C@H](C[C@@H]1CCNC1=O)NC(=O)[C@@H]1CC2(CCN1C(=O)[C@@H]1C[C@@H]1c1ccccc1)CC2 [Compound 47] | > 50000 nM | 200 to 2000 nM | – | > 100000 nM | ≥ 10000 nM | 2000 to 20000 nM | – | – | > 10000 nM
O=C(NC1CC1)C(=O)[C@H](C[C@@H]1CCNC1=O)NC(=O)[C@@H]1CC2(CCN1C(=O)[C@@H]1C[C@H]1c1ccccc1)CC2 [Compound 48] | 1000 to 10000 nM | 200 to 2000 nM | 100 to 1000 nM | > 100000 nM | 1000 to 10000 nM | 20 to 200 nM | – | – | –
O=C(NC1CC1)C(=O)C(C[C@@H]1CCNC1=O)NC(=O)[C@@H]1[C@@H]2C[C@@H](CC23CC3)N1C(=O)c1ncc(-c2ccccc2)s1 (stereo partly drawn) [Compound 49, N-cyclopropyl-2-oxo-4-[(3S)-2-oxopyrrolidin-3-yl]-3-[(1R,4S,6S)-5-(5-phenyl-1,3-thiazole-2-carbonyl)-5-azaspiro[bicyclo[2.2.1]heptane-2,1′-cyclopropan]-6-ylformamido]butanamide] | < 1000 nM | 2000 to 20000 nM | 100 to 1000 nM | > 100000 nM | ≥ 10000 nM | 20 to 200 nM | – | – | –
CC(C)(C)[C@H](NC(=O)C(F)(F)F)C(=O)N1[C@H]2C[C@@H]([C@H]1C(=O)N[C@H](C#N)C[C@@H]1CCNC1=O)C1(CC1)C2 [Compound 50, (1R,4S,6S)—N-[(1S)-1-cyano-2-[(3S)-2-oxopyrrolidin-3-yl]ethyl]-5-[(2S)-3,3-dimethyl-2-(2,2,2-trifluoroacetamido)butanoyl]-5-azaspiro[bicyclo[2.2.1]heptane-2,1′-cyclopropane]-6-carboxamide] | < 1000 nM | – | < 100 nM | > 100000 nM | ≥ 10000 nM | < 20 nM | > 10000 nM | – | –
CC(C)(C)[C@H](NC(=O)C(F)(F)F)C(=O)N1CCC2(C[C@H]1C(=O)N[C@H](C#N)C[C@@H]1CCNC1=O)CC(F)(F)C2 [Compound 51, (S)—N—((S)-1-cyano-2-((S)-2-oxopyrrolidin-3-yl)ethyl)-7-((S)-3,3-dimethyl-2-(2,2,2-trifluoroacetamido)butanoyl)-2,2-difluoro-7-azaspiro[3.5]nonane-6-carboxamide] | 1000 to 10000 nM | – | 1000 to 10000 nM | > 100000 nM | ≥ 10000 nM | 200 to 2000 nM | > 10000 nM | – | –
O=C(NC1CC1)C(=O)[C@H](C[C@@H]1CCNC1=O)NC(=O)[C@@H]1CC2(CCN1C(=O)c1ncc(-c3ccccc3)s1)CC2 [Example 1, (S)—N—((S)-4-(cyclopropylamino)-3,4-dioxo-1-((S)-2-oxopyrrolidin-3-yl)butan-2-yl)-6-(5-phenylthiazole-2-carbonyl)-6-azaspiro[2.5]octane-5-carboxamide] | < 1000 nM | 200 to 2000 nM | 100 to 1000 nM | – | ≥ 10000 nM | 20 to 200 nM | – | 10000 to 100000 nM | –
Cn1c(C(=O)N2CCC3(CC3)C[C@H]2C(=O)N[C@@H](C[C@@H]2CCNC2=O)C(=O)CO)cc2ccccc21 [Example 2, (S)—N—((S)-4-hydroxy-3-oxo-1-((S)-2-oxopyrrolidin-3-yl)butan-2-yl)-6-(1-methyl-1H-indole-2-carbonyl)-6-azaspiro[2.5]octane-5-carboxamide] | 1000 to 10000 nM | – | 1000 to 10000 nM | – | ≥ 10000 nM | 20 to 200 nM | > 10000 nM | ≥ 100000 nM | –
O=C(NC1CC1)C(=O)[C@H](C[C@@H]1CCNC1=O)NC(=O)[C@@H]1CC2(CCN1C(=O)c1nc(-c3ccccc3)cs1)CC2 [Example 3] | 1000 to 10000 nM | 2000 to 20000 nM | 100 to 1000 nM | – | ≥ 10000 nM | 20 to 200 nM | – | 10000 to 100000 nM | –
Cn1c(C(=O)N2CCC3(CC3)C[C@H]2C(=O)N[C@@H](C[C@@H]2CCNC2=O)C(=O)C(=O)NC2CC2)nc2ccccc21 [Example 4] | 1000 to 10000 nM | 2000 to 20000 nM | 1000 to 10000 nM | – | ≥ 10000 nM | 20 to 200 nM | – | ≥ 100000 nM | –
Cn1c(C(=O)N2CCC3(CC3)C[C@H]2C(=O)N[C@H](C#N)C[C@@H]2CCNC2=O)cc2ccccc21 [Example 5, (S)—N—((S)-1-cyano-2-((S)-2-oxopyrrolidin-3-yl)ethyl)-6-(1-methyl-1H-indole-2-carbonyl)-6-azaspiro[2.5]octane-5-carboxamide] | 1000 to 10000 nM | – | 1000 to 10000 nM | – | ≥ 10000 nM | 200 to 2000 nM | > 10000 nM | ≥ 100000 nM | –
